Marks after values point to notes of the source that are not given here.
Tested on: E. coli enhanced green fluorescent protein (B)GFP 0157:H7
Assay: Biocidal wood blocks: CFU recovered after contact
Format: cell-based
Conditions: for average percent reduction of bacterium as compared to the untreated control blocks: estimated from the data of all trials
Protocol: The blocks were prepared by dividing large cutting boards into squares with sides measuring 5 cm using a table saw. The blocks were of the face-grain configuration. The edges were then smoothened with 120 or 180 grit sandpaper as needed to achieve uniformity among all blocks. The blocks were visually inspected to be the correct size and any blocks that appeared to deviate from the standard were remeasured and discarded if they were an incorrect size.
The blocks (Bemis Manufacturing Company, 300 Mill Street, PO Box 901, Sheboygan Falls, Wis., 53085-0901) were labeled based on concentration and ascending numbers. The blocks were immersed in solutions containing the following two formulations, respectively: […]
And the blocks were taken out from the solutions after they are completely soaked by the chemicals, and then dried at 80° C. in an oven for a prolonged time till they are completely dry. The curing of the blocks was conducted at 150° C. for over 30 minutes.
A bleach process is necessary to activate the biocide. A bleach solution containing about 0.05% sodium hypochlorite was prepared from a commercial Clorox liquid (containing 5.25% sodium hypochlorite). The volume of the solution was based on a liquid to wood mass ratio of 50:1. The blocks were scrubbed lightly on a sponge saturated with the chlorine solution from the bath for five strokes. The blocks were placed face down in the diluted bleach solution for 15 minutes. After 15 minutes the blocks were transferred directly to a cooling rack (to allow even drying) in a laminar flow hood that had been previously sterilized with a 70% ethanol solution and left with the exhaust turned on. The blocks were then left in the laminar flow hood until completely dry (at least five hours).
1. A sample of E. coli enhanced green fluorescent protein (B)GFP 0157:H7 was inoculated into a test tube of LB broth with 0.01% ampicillin and 0.01% novobiocin antibiotics (to be referred to as LBAN). The test tube was labeled and then incubated at 37° C. for 24 hours. The sample was then serial diluted with LBAN broth. 0.1 mL of the broth was then inoculated onto LB or Brain Heart Infusion (BHI) agar, also with ampicillin and 0.01% novobiocin antibiotics. The concentrations of 10^−7, 10^−6, and 10^−5 were spread plated. These plates were allowed to incubate for 24 hours at 37° C. The CFU/mL was determined by averaging the colonies from the plates of the most easily countable concentration.
7. The timer was started and the inoculum was spread on the blocks at the rate of one per 30 seconds.
8. 0.2 mL of the inoculum was spread onto the blocks using the pipet tip and pipetter. A new pipet tip was used for each block.
9. After the correct (variable) contact time, the blocks were carefully pressed on the agar surface for 20 seconds and then the plates were inverted and placed in an incubator at 37° C. for 24 hours.
10. The colonies were counted for each plate and thus the kills were determined for each concentration.

[1] = trial A, 5% biocide, inoculum 2.5 × 10^5, contact time 5 minutes
[2] = trial A, 10% biocide, inoculum 2.5 × 10^5, contact time 5 minutes
[3] = trial B, 5% biocide, inoculum 1.8 × 10^5, contact time 5 minutes
[4] = trial B, 10% biocide, inoculum 1.8 × 10^5, contact time 5 minutes
[5] = trial C, 5% biocide, inoculum 1.4 × 10^5, contact time 5 minutes
[6] = trial C, 10% biocide, inoculum 1.4 × 10^5, contact time 5 minutes
[7] = trial D, 5% biocide, inoculum 1.4 × 10^5, contact time 5 minutes
[8] = trial D, 10% biocide, inoculum 1.4 × 10^5, contact time 5 minutes
[9] = trial E, 5% biocide, inoculum 1.0 × 10^4, contact time 5 minutes
[10] = trial E, 10% biocide, inoculum 1.0 × 10^4, contact time 5 minutes
[11] = trial F, 5% biocide, inoculum 1.0 × 10^4, contact time 5 minutes
[12] = trial F, 10% biocide, inoculum 1.0 × 10^4, contact time 5 minutes
[13] = trial G, 5% biocide, inoculum 3.3 × 10^4, contact time 2.5 minutes
[14] = trial G, 10% biocide, inoculum 3.3 × 10^4, contact time 2.5 minutes
[15] = trial H, 5% biocide, inoculum 3.3 × 10^4, contact time 5 minutes
[16] = trial H, 10% biocide, inoculum 3.3 × 10^4, contact time 5 minutes
[17] = trial I, 5% biocide, inoculum 1.0 × 10^4, contact time 5 minutes
[18] = trial I, 10% biocide, inoculum 1.0 × 10^4, contact time 5 minutes
[19] = trial J, 1st line, 5% biocide, inoculum 1.37 × 10^5, contact time 5 minutes
[20] = trial J, 1st line, 10% biocide, inoculum 1.37 × 10^5, contact time 5 minutes
[21] = trial J, 2nd line, 5% biocide, inoculum 1.37 × 10^5, contact time 5 minutes
[22] = trial J, 2nd line, 10% biocide, inoculum 1.37 × 10^5, contact time 5 minutes
[23] = trial K, New Blocks, 5% biocide, inoculum 1.2 × 10^4, contact time 5 minutes
[24] = trial K, New Blocks, 10% biocide, inoculum 1.2 × 10^4, contact time 5 minutes
[25] = trial K, Old Blocks, 5% biocide, inoculum 1.2 × 10^4, contact time 5 minutes
[26] = trial K, Old Blocks, 10% biocide, inoculum 1.2 × 10^4, contact time 5 minutes
[27] = trial L, New Blocks, 5% biocide, inoculum 8.0 × 10^1, contact time 5 minutes
[28] = trial L, New Blocks, 10% biocide, inoculum 8.0 × 10^1, contact time 5 minutes
[29] = trial L, Old Blocks, 5% biocide, inoculum 8.0 × 10^1, contact time 5 minutes
[30] = trial L, Old Blocks, 10% biocide, inoculum 8.0 × 10^1, contact time 5 minutes
[31] = trial M, New Blocks, 5% biocide, inoculum 6.45 × 10^3, contact time 10 minutes
[32] = trial M, New Blocks, 10% biocide, inoculum 6.45 × 10^3, contact time 10 minutes
[33] = trial M, Old Blocks, 5% biocide, inoculum 6.45 × 10^3, contact time 10 minutes
[34] = trial M, Old Blocks, 10% biocide, inoculum 6.45 × 10^3, contact time 10 minutes
[35] = trial N, New Blocks, 5% biocide, inoculum 6.6 × 10^4 CFU/mL, contact time 10 minutes
[36] = trial N, New Blocks, 10% biocide, inoculum 6.6 × 10^4 CFU/mL, contact time 10 minutes
[37] = trial N, Old Blocks, 5% biocide, inoculum 6.6 × 10^4 CFU/mL, contact time 10 minutes
[38] = trial N, Old Blocks, 10% biocide, inoculum 6.6 × 10^4 CFU/mL, contact time 10 minutes

CC1(C)C(=O)N(CO)C(=O)N1CO [Anti-2, 1,3-dimethylol-5,5-dimethylhydantoin]
average percent reduction of bacterium as compared to the untreated control blocks (5% blocks): about 86% | average percent reduction of bacterium as compared to the untreated control blocks (10% concentration blocks): 91% | means CFU/block ± standard deviation [1]: 125.3 ± 74.1 CFU/block | percentage reduction compared to control [1]: (85.0%)** | means CFU/block ± standard deviation [2]: 166.3 ± 132.2 CFU/block | percentage reduction compared to control [2]: (81.2%)** | means CFU/block ± standard deviation [3]: 11.6 ± 11.4 CFU/block | percentage reduction compared to control [3]: (97.6%) | means CFU/block ± standard deviation [4]: 26.3 ± 27.6 CFU/block | percentage reduction compared to control [4]: (94.5%) | means CFU/block ± standard deviation [5]: 65 ± 23.5 CFU/block | percentage reduction compared to control [5]: (85.4%) | means CFU/block ± standard deviation [6]: 48 ± 44.2 CFU/block | percentage reduction compared to control [6]: (89.2%) | means CFU/block ± standard deviation [7]: 19.8 ± 6.8 CFU/block | percentage reduction compared to control [7]: (95.0%) | means CFU/block ± standard deviation [8]: 26.8 ± 20.1 CFU/block | percentage reduction compared to control [8]: (93.2%) | means CFU/block ± standard deviation [9]: 2.5 ± 2.9 CFU/block | percentage reduction compared to control [9]: (97.7%) | means CFU/block ± standard deviation [10]: 2.3 ± 3.4 CFU/block | percentage reduction compared to control [10]: (97.8%) | means CFU/block ± standard deviation [11]: 25.9 ± 13.8 CFU/block | percentage reduction compared to control [11]: (94.3%) | means CFU/block ± standard deviation [12]: 31.7 ± 25.1 CFU/block | percentage reduction compared to control [12]: (93.1%) | means CFU/block ± standard deviation [13]: 20.8 ± 13.8 CFU/block | percentage reduction compared to control [13]: (89.8%) | means CFU/block ± standard deviation [14]: 10.3 ± 7.8 CFU/block | percentage reduction compared to control [14]: (95.0%) | means CFU/block ± standard deviation [15]: 14 ± 11.4 CFU/block | percentage reduction compared to control [15]: (80.1%) | means CFU/block ± standard deviation [16]: 7.4 ± 4.0 CFU/block | percentage reduction compared to control [16]: (89.9%) | means CFU/block ± standard deviation [17]: 12.3 ± 8.4 CFU/block | percentage reduction compared to control [17]: (73.8%) | means CFU/block ± standard deviation [18]: 6 ± 4.2 CFU/block | percentage reduction compared to control [18]: (87.2%) | means CFU/block ± standard deviation [19]: 63.7 ± 45.1 CFU/block | percentage reduction compared to control [19]: (80.6%) | means CFU/block ± standard deviation [20]: 37.9 ± 14.3 CFU/block | percentage reduction compared to control [20]: (88.5%) | means CFU/block ± standard deviation [21]: 45.8 ± 19.2 CFU/block | percentage reduction compared to control [21]: (85.8%) | means CFU/block ± standard deviation [22]: 14.6 ± 12.5 CFU/block | percentage reduction compared to control [22]: (95.5%) | means CFU/block ± standard deviation (trial J, 3rd line, 5% biocide, inoculum 1.37 × 10^5, contact time 5 minutes): 37.4 ± 15.8 CFU/block | means CFU/block ± standard deviation (trial J, 3rd line, 10% biocide, inoculum 1.37 × 10^5, contact time 5 minutes): 29.7 ± 25.1 CFU/block | means CFU/block ± standard deviation [23]: 7.7 ± 3.0 CFU/block | percentage reduction compared to control [23]: (90.7%) | means CFU/block ± standard deviation [24]: 4.9 ± 5.8 CFU/block | percentage reduction compared to control [24]: (94.1%) | means CFU/block ± standard deviation [25]: 12.0 ± 9.4 CFU/block | percentage reduction compared to control [25]: (77.3%) | means CFU/block ± standard deviation [26]: 9.3 ± 5.4 CFU/block | percentage reduction compared to control [26]: (82.4%) | means CFU/block ± standard deviation [27]: 0.17 ± 0.41 CFU/block | percentage reduction compared to control [27]: (98.1%) | means CFU/block ± standard deviation [28]: 0 ± 0 CFU/block | percentage reduction compared to control [28]: (100% | means CFU/block ± standard deviation [29]: 1.3 ± 1.3 CFU/block | percentage reduction compared to control [29]: (88.9%) | means CFU/block ± standard deviation [30]: 0.67 ± 0.71 CFU/block | percentage reduction compared to control [30]: (94.3%) | means CFU/block ± standard deviation [31]: 3.3 ± 2.4 CFU/block | percentage reduction compared to control [31]: (60.2% | means CFU/block ± standard deviation [32]: 1.6 ± 1.8 CFU/block | percentage reduction compared to control [32]: (80.7%) | means CFU/block ± standard deviation [33]: 3.3 ± 2.1 CFU/block | percentage reduction compared to control [33]: (82.4%) | means CFU/block ± standard deviation [34]: 3.3 ± 2.4 CFU/block | percentage reduction compared to control [34]: (82.4%) | means CFU/block ± standard deviation [35]: 17.8 ± 4.8 CFU/block | percentage reduction compared to control [35]: (88.2%) | means CFU/block ± standard deviation [36]: 6.2 ± 5.8 CFU/block | percentage reduction compared to control [36]: (95.9%) | means CFU/block ± standard deviation [37]: 20.7 ± 6.1 CFU/block | percentage reduction compared to control [37]: (86.5%) | means CFU/block ± standard deviation [38]: 15.9 ± 6.7 CFU/block | percentage reduction compared to control [38]: (89.6%) | more effective reductions of the bacterium on newer blocks than on old blocks (trials J-N, new versus old blocks): 5-10%

From US6770287B1, “Biocidal cellulosic material” (The Regents of the University of California, priority 2000, dated 2004)
